Assay: Inhibition of recombinant PDK1 (unknown origin) using peptide as substrate

- IC50: > 5 µM
SMILES: COc1cc2ncc(C#N)c(Nc3ccc(OCc4ccccn4)c(Cl)c3)c2cc1NC(=O)/C=C/CN(C)C

— BindingDB's records for PubMed 15173008 (Wyeth Research)
